Several values for one entry are separate records, joined by “and”; a condition that tells them apart may be missing. Identical values can stand only once. Entries after “also recorded” stand apart in the source; their conditions may differ.
What was measured:
[1] = tested on: ADP-Activated Platelets / resting platelets (platelet rich plasma); assay: Platelet aggregation assay (PRP, Biodata PAP-4 aggregation profiler); type: cell-based, human; settings: for effect on aggregation of resting platelets: no ADP; for effect on the aggregation of ADP-activated platelets: wide range of ADP concentrations
Procedure: All platelets used in the in vitro platelet aggregation experiments were isolated from healthy human volunteers who denied ingesting aspirin or aspirin containing compounds within 10 days. Aggregation assays were performed on PRP. Approximately 50 mL of whole blood was collected in aliquots in 4.5 mL vacutainer tubes containing 0.5 mL of 3.8% sodium citrate. PRP was prepared by centrifuging the anticoagulated blood at 200 g for 10 minutes and harvesting the supernatant.
The Biodata 4-channel platelet aggregation profiler (PAP-4; Biodata Corp., Hatboro, Pa.) was blanked using a cuvette containing only platelet poor plasma (PPP). A 350 μL aliquot of PRP, containing approximately 2 to 5×10^8/mL platelets, was added to a cuvette containing a stir bar. Anti-CD40L antibody, human IgG, normal human serum, CD40-Fc, or anti-hFc were added in a total volume of 100 μL. The loaded cuvette was placed in the machine and the reaction components mixed prior to the addition of ADP.
Aggregation was initiated with the addition of sub-optimal concentration of ADP in 50 μL (final concentration varies for each individual sample). The aggregation profiler has four ports, which can run simultaneously. An aggregation tracing was generated for each sample for four minutes following the addition of ADP. At the end of the tracing, the instrument calculates the percentage of aggregation by comparing the transmission of light through the sample to the transmission of light through the PPP blank. A titration was performed at the beginning of each experiment, and subsequent runs were performed at a suboptimal ADP concentration.

[2] = target: T1, CD40L on the platelet surface (Homo sapiens, UniProt P29965); assay: Binding of biotin-conjugated anti-CD40L antibody to platelets (western blotting with HRP-streptavidin); settings: data not shown
T1 construct: Platelets were incubated with a biotin-conjugated anti-CD40L antibody to determine whether CD40L is present on the surface of platelets; endogenous in cells
T1 sequence (P29965 1-261): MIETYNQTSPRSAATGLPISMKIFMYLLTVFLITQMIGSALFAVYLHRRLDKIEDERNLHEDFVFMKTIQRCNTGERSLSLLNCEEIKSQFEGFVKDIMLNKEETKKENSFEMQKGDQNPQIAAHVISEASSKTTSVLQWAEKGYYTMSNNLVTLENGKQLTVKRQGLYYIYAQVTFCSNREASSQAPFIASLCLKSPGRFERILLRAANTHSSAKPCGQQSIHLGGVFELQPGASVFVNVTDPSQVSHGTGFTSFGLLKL

[3] = result in words, listed as Anti-CD40L antibody

BG9588: Research-grade anti-CD40L antibody prepared at Biogen; table column BG9588 corresponds to it
effect on aggregation of cross-linking of antibody bound to CD40L on activated platelets ([1]; 2 μg/mL, cross-linked with anti-hFc (Table 5)): may enhance aggregation under limited conditions | effect on platelet aggregation of anti-CD40L antibody cross-linked by sCD40L ([1]; FIG. 3, 233 μg/mL antibody and 30 μg/mL sCD40L, PRP of ten healthy donors, sub-optimal ADP): affected; also recorded: enhanced aggregation occurred with platelets isolated from some, but not all, healthy donors; also recorded: induced | effect on platelet aggregation together with sCD40L ([1]; FIG. 4, 200 μg/mL with sCD40L 30 μg/mL, 0.75 μM ADP, one donor): specifically enhanced | % of Aggregation ([1]; Table 1, 5 μg/mL, ADP 0.00 μM (resting platelets)): 11% | % of Aggregation ([1]; Table 1, 5 μg/mL, ADP 0.37 μM): 15% | % of Aggregation ([1]; Table 1, 5 μg/mL, ADP 0.70 μM): 24% | % of Aggregation ([1]; Table 1, 5 μg/mL, ADP 2.00 μM): 21% | % of Aggregation ([1]; Table 1, 5 μg/mL, ADP 6.70 μM): 71% | % of Aggregation ([1]; Table 1, 5 μg/mL, ADP 20.00 μM, PRP, four-minute tracing): 72% | % of Aggregation ([1]; Table 2, 5 μg/mL, ADP 0.37 μM): 10% | % of Aggregation ([1]; Table 2, 5 μg/mL, ADP 0.70 μM): 10% | % of Aggregation ([1]; Table 2, 5 μg/mL, ADP 2.00 μM): 12% | % of Aggregation ([1]; Table 2, 5 μg/mL, ADP 6.70 μM): 78% | % of Aggregation ([1]; Table 2, 5 μg/mL, ADP 20.00 μM): 80% | % of Aggregation ([1]; Table 3, 5 μg/mL, ADP 0.00 μM (resting platelets)): 3% | % of Aggregation ([1]; Table 3, 5 μg/mL, ADP 0.30 μM): 10% | % of Aggregation ([1]; Table 3, 5 μg/mL, ADP 0.60 μM): 10% | % of Aggregation ([1]; Table 3, 5 μg/mL, ADP 1.25 μM): 12% | % of Aggregation ([1]; Table 3, 5 μg/mL, ADP 2.50 μM): 62% | % of Aggregation ([1]; Table 3, 5 μg/mL, ADP 5.00 μM): 67% | % of Aggregation ([1]; Table 3, 5 μg/mL, ADP 10.00 μM): 69% | % of Aggregation ([1]; Table 3, 5 μg/mL, ADP 20.00 μM): 68% | % of Aggregation ([1]; Table 4, 1.25 μg/mL, ADP 0.00 μM): 3% | % of Aggregation ([1]; Table 4, 2.50 μg/mL, ADP 0.00 μM): 5% | % of Aggregation ([1]; Table 4, 5.00 μg/mL, ADP 0.00 μM): 3% | % of Aggregation ([1]; Table 4, 10.00 μg/mL, ADP 0.00 μM): 3% | % of Aggregation ([1]; Table 4, 20.00 μg/mL, ADP 0.00 μM): 3% | % of Aggregation ([1]; Table 5, BG9588 2 μg/mL + anti-hFc 2.22 μg/mL, ADP 0.0 μM): 3% | % of Aggregation ([1]; Table 5, BG9588 2 μg/mL + anti-hFc 2.22 μg/mL, ADP 0.5 μM): 8% | % of Aggregation ([1]; Table 5, BG9588 2 μg/mL + anti-hFc 2.22 μg/mL, ADP 1.0 μM): 76% | % of Aggregation ([1]; Table 5, BG9588 2 μg/mL + anti-hFc 6.66 μg/mL, ADP 0.0 μM): 3% | % of Aggregation ([1]; Table 5, BG9588 2 μg/mL + anti-hFc 6.66 μg/mL, ADP 0.5 μM): 8% | % of Aggregation ([1]; Table 5, BG9588 2 μg/mL + anti-hFc 6.66 μg/mL, ADP 1.0 μM): 84% | % of Aggregation ([1]; Table 5, BG9588 2 μg/mL + anti-hFc 20.00 μg/mL, ADP 0.0 μM): 3% and 4% | % of Aggregation ([1]; Table 5, BG9588 2 μg/mL + anti-hFc 20.00 μg/mL, ADP 0.5 μM): 8% | % of Aggregation ([1]; Table 5, BG9588 2 μg/mL + anti-hFc 20.00 μg/mL, ADP 1.0 μM): 83% | % of Aggregation ([1]; Table 5, BG9588 2 μg/mL alone, ADP 0.0 μM): 3% | % of Aggregation ([1]; Table 6, resting platelets, BG9588 2 μg/mL + serum 0.00032x): 6% | % of Aggregation ([1]; Table 6, resting platelets, BG9588 2 μg/mL + serum 0.0016x): 6% | % of Aggregation ([1]; Table 6, resting platelets, BG9588 2 μg/mL + serum 0.008x): 7% | % of Aggregation ([1]; Table 6, resting platelets, BG9588 2 μg/mL + serum 0.04x): 6% | % of Aggregation ([1]; Table 6, resting platelets, BG9588 2 μg/mL + serum 0.2x): 6% | % of Aggregation ([1]; Table 6, resting platelets, BG9588 2 μg/mL + serum 1.0x): 9% | effect on platelet aggregation of cross-linked anti-CD40L antibody ([1]; cross-linked with 2.22 μg/mL anti-hFc, ADP 1.0 μM (Table 5 lines 109 and 110)): increased aggregation | effect on platelet aggregation of cross-linked anti-CD40L antibody ([1]; cross-linked with 20 μg/mL or 6.66 μg/mL anti-hFc): did not affect | enhancing effect on platelet aggregation of cross-linked anti-CD40L antibody ([1]; cross-linked with anti-hFc, lower concentration of ADP): not observed | effect on aggregation of resting platelets [1, 3]: do not induce | effect on aggregation of resting platelets ([1]; result in words, listed as anti-CD40L antibody): not affected | effect on platelet aggregation ([1]; result in words): does not affect | effect on the aggregation of ADP-activated platelets [1, 3]: do not induce the aggregation of resting platelets or affect; also recorded: do not affect | effect on the aggregation of ADP-activated platelets ([1]; result in words, listed as Research-grade anti-CD40L antibody): did not affect | effect on platelets in the presence of normal human serum ([1]; with normal human serum (Table 6)): not affected

B1: sCD40L: recombinant soluble CD40 ligand prepared at Biogen, cross-linking agent (protein, UniProt P29965 47-261, looked up)
extracellular domain: HRRLDKIEDERNLHEDFVFMKTIQRCNTGERSLSLLNCEEIKSQFEGFVKDIMLNKEETKKENSFEMQKGDQNPQIAAHVISEASSKTTSVLQWAEKGYYTMSNNLVTLENGKQLTVKRQGLYYIYAQVTFCSNREASSQAPFIASLCLKSPGRFERILLRAANTHSSAKPCGQQSIHLGGVFELQPGASVFVNVTDPSQVSHGTGFTSFGLLKL
modifications: extracellular domain
notes: recombinant soluble CD40 ligand prepared at Biogen, cross-linking agent
effect of preincubation on binding of biotin-conjugated anti-CD40L antibody to activated platelets [2]: inhibited binding

Source: patent US9297810B2, “CD40L-binding agent based platelet aggregation assays” (BIOGEN IDEC MA INC., priority 2005, dated 2016)
